This assay deals with human epidermal melanocytes from dark human neonatal foreskin (HEMn-DP). Description: Quantification of total melanin in cultured melanocytes after 72 hours treatment. Type of assay: cell-based. Conditions: for Mean mg melanin/100K cells: mean of triplicate; for mg melanin/100K cells: single replicate well, normalized to cell number. On the procedure: Monolayer cultures were initiated from cryopreserved cultures of human epidermal melanocytes from dark human neonatal foreskin (HEMn-DP; C-202-5C; Cascade Biologics™), according to the manufacturer's instructions. Cells were cultured in Medium 254 (M-254-500, Cascade Biologics) supplemented with Human Melanocyte Growth Supplement (HMGS; S-0002-5, Cascade Biologics). Stocks of these cultures were generated and stored in Sythn-a-Freeze® cryopreservation media (R-005-50. Cascade Biologics) in liquid nitrogen at passage 2.
For use in assays, cells were thawed according to manufacturer's instructions, and subcultured to increase cell numbers as required. Cells were then plated into 6-well plates at ˜200,000 cells per well and incubated at 37° C., 5% CO2, and were used in assays at passage 4.
Once the melanocytes had adhered to the 6-well plate's (approx. 4-6 hr.), the medium was replaced with Medium 254 containing Human Melanocyte Growth Supplement PMA-free (HMGS-2; S-016-5 hereafter termed depleted media) for approximately 16 hours, or overnight, prior to treatment with the actives.
To develop the screening assay a variety of cell concentrations and incubation times were tested to obtain optimized measurable levels of melanin. During this process no materials were applied to the cells. In addition a standard melanin (M8631, Sigma Aldrich) stock solution was prepared in Solvable™ reagent (5NE9100, Perkin Elmer) to obtain a standard curve for evaluating levels of melanin extracted from cells using a spectrophotometer. Method development was performed to obtain the optimum time required to solubilize the melanin into solution without degradation and a reduction in color.
All stocks of active materials were diluted in DMSO, ethanol or media, before further dilution in depleted media. Treatments were applied to the cells in 6-well plates in triplicate for 72 hours after which time the cells were harvested. Appropriate solvent controls in triplicate were incorporated into each assay.
After 72 hours, media was removed form the cells and the cells were washed once in Dulbecco's PBS. The PBS wash was removed and discarded and care being taken to ensure that all excess PBS was removed as far as possible. 1 mL trypsin-EDTA solution (R-001-100, Cascade Biologicsm) was added and cells incubated at room temperature for ˜1 minute. Microscopic observation was carried out to ensure all cells had detached from the plate. The resulting cell suspension was transferred to a 1.5 mL Eppendorf tube, 50 μL was removed for a cell count (Beckman coulter counter), and the remaining suspension was centrifuged at 13,000 rpm for 5 minutes. The supernatant was discarded and the cell pellets were frozen at −20° C.
The cell pellets were thawed at room temperature, and each pellet was re-suspended in 75 μL Solvable™ reagent (6NE9100, Perkin Elmer). Each tube was vortexed briefly, before incubating in a water bath at 60° C. for 1 hour. After the 1 hour incubation, each tube was vortexed and then centrifuged at 13,000 rpm for 15 minutes. The supernatant containing the extracted melanin was transferred to a 96 well plate and the absorbance at 490 nm recorded on a Dynex MRX-II plate reader.
Each ingredient was tested in triplicate and compared against the relevant vehicle control. The total amount of melanin extracted was calculated from a melanin standard curve. All resultant data was normalized to the total number of the cells in the sample. Data was subjected to the F-test for variance, followed by Student's t-test (assuming equal or unequal variance depending on results of the F-test.

Experimental findings from US20100143277A1, “Skin Lightening Compositions with Acetylcholinesterase Inhibitors” (priority 2008, published 2010) are described below.

Several values for one entry are separate records, joined by “and”; a condition that tells them apart may be missing. Identical values can stand only once. Marks after values point to notes of the source that are not given here.

As to `COc1ccc2c3c1O[C@H]1C[C@@H](O)C=C[C@@]31CCN(C)C2` [Galanthamine, galanthamine], the “Mean mg melanin/100K cells” value reads like this: (0.1 μM) 24.0^e mg melanin/100K cells; (1 μM) 19.4^d mg melanin/100K cells; (10 μM) 23.4^c mg melanin/100K cells. The “mg melanin/100K cells” value (0.1 μM) is 21.2 mg melanin/100K cells and 26.7 mg melanin/100K cells and 23.9 mg melanin/100K cells; the “mg melanin/100K cells” value (1 μM) was 21.0 mg melanin/100K cells and 18.6 mg melanin/100K cells and 18.5 mg melanin/100K cells; the “mg melanin/100K cells” value (10 μM) was 23.3 mg melanin/100K cells and 23.7 mg melanin/100K cells and 23.0 mg melanin/100K cells.
